How the values were obtained:
Format in all cases: in vivo
Parameters in all cases: key: 5: completely killed; 4: seriously injured; 3: considerably injured; 2: somewhat injured; 1: slightly injured; 0: not injured (normally grown)
Settings in all cases: 4 weeks after treatment
[1] = test system: paddy rice; test: Experiment 1 flooded soil treatment: injury to paddy rice
Description: (§1) Paddy soil (clay loam) was put into a pot so as to have a surface area of 1/15500 ares. Uniformly mixed seeds of several kinds of weeds, viz., nobie (barnyardgrass, Echinochloa spp.), broad-leaved weeds, hotarui (bulrush, Scirpus juncoides) and tamagayatsuri (small-flowered umbrellaplant, Cyperus difformis), were sown in the surface layer of the soil in each pot, and then paddy rice seedlings at the two- or three-leaved stage were transplanted into each pot to a depth of 2 cm, and water was fed into each pot so as to provide a 3 cm deep water layer on the soil surface. After 3 days, in other words at the initial stage of germination of nobie (barnyardgrass, Echinochloa spp.), a predetermined amount of a selected compound obtained in a manner analogous to Example 8 in the form of diluted aqueous solution was dropped into the water layer in each pot. After that, the pots were kept in a glass chamber to allow the paddy rice and the weeds to grow, and after the lapse of 4 weeks from the treatment with the selected compounds, the herbicidal effects and the degree of injury to the paddy rice were evaluated. In the table, the herbicidal effects and the degree of injury to the paddy rice are indicated by numerical values, which have the following meaning.
(§2) 0: not injured (normally grown)

[2] = test system: nobie (barnyardgrass, Echinochloa spp.); test: Experiment 1 flooded soil treatment: nobie
Description: as §1, §2

[3] = test system: broad-leaved weeds; test: Experiment 1 flooded soil treatment: broad-leaved weeds
Description: as §1, §2

[4] = test system: hotarui (bulrush, Scirpus juncoides); test: Experiment 1 flooded soil treatment: hotarui
Description: as §1, §2

[5] = test system: tamagayatsuri (small-flowered umbrellaplant, Cyperus difformis); test: Experiment 1 flooded soil treatment: tamagayatsuri
Description: as §1, §2

[6] = test system: rice; test: Experiment 2 foliage treatment: rice
Procedure: (§3) Upon seedling stage (two- or three-leaved stage) of rice, cockspur (Panicum crus-galli), garden radish, aobiyu (slender amaranth, Amaranthus viridis) and mehishiba (henry crabgrass, Digitaria cliaris) which were grown on a cultivated soil put in pots of 1/15500 ares, a selected compound obtained in a manner analogous to Example 8, in suspended wettable powder, was sprayed to each plant. After that, the pots were kept in a glass chamber to allow each plant to grow, and after the lapse of 4 weeks from the treatment with the selected compounds the herbicidal effects were evaluated. The evaluation of the herbicidal effects was similarly conducted as to that of Experiment 1.

[7] = test system: cockspur (Panicum crus-galli); test: Experiment 2 foliage treatment: cockspur
Procedure: as §3

[8] = test system: garden radish; test: Experiment 2 foliage treatment: garden radish
Procedure: as §3

[9] = test system: aobiyu (slender amaranth, Amaranthus viridis); test: Experiment 2 foliage treatment: aobiyu
Procedure: as §3

[10] = test system: mehishiba (henry crabgrass, Digitaria cliaris); test: Experiment 2 foliage treatment: mehishiba
Procedure: as §3

[11] = test system: ichibi (velvetleaf, Abutilon theophrasti); test: Experiment 3 foliage treatment: ichibi
Procedure: as §3, with “ichibi (velvetleaf, Abutilon theophrasti), onamomi (heartleaf cocklebur, Xanthium strumarium) (4L stage), noasagao (blue morningglory, Ipomoea indica)” for “rice, cockspur (Panicum crus-galli), garden radish, aobiyu (slender amaranth, Amaranthus viridis)”, “ooinutade (pale smartweed, Persicaria lapathifolia)” for “mehishiba (henry crabgrass, Digitaria cliaris)”, “1/8850” for “1/15500”

[12] = test system: onamomi (heartleaf cocklebur, Xanthium strumarium); test: Experiment 3 foliage treatment: onamomi
Procedure: as §3, with “ichibi (velvetleaf, Abutilon theophrasti), onamomi (heartleaf cocklebur, Xanthium strumarium) (4L stage), noasagao (blue morningglory, Ipomoea indica)” for “rice, cockspur (Panicum crus-galli), garden radish, aobiyu (slender amaranth, Amaranthus viridis)”, “ooinutade (pale smartweed, Persicaria lapathifolia)” for “mehishiba (henry crabgrass, Digitaria cliaris)”, “1/8850” for “1/15500”

[13] = test system: noasagao (blue morningglory, Ipomoea indica); test: Experiment 3 foliage treatment: noasagao
Procedure: as §3, with “ichibi (velvetleaf, Abutilon theophrasti), onamomi (heartleaf cocklebur, Xanthium strumarium) (4L stage), noasagao (blue morningglory, Ipomoea indica)” for “rice, cockspur (Panicum crus-galli), garden radish, aobiyu (slender amaranth, Amaranthus viridis)”, “ooinutade (pale smartweed, Persicaria lapathifolia)” for “mehishiba (henry crabgrass, Digitaria cliaris)”, “1/8850” for “1/15500”

[14] = test system: ooinutade (pale smartweed, Persicaria lapathifolia); test: Experiment 3 foliage treatment: ooinutade
Procedure: as §3, with “ichibi (velvetleaf, Abutilon theophrasti), onamomi (heartleaf cocklebur, Xanthium strumarium) (4L stage), noasagao (blue morningglory, Ipomoea indica)” for “rice, cockspur (Panicum crus-galli), garden radish, aobiyu (slender amaranth, Amaranthus viridis)”, “ooinutade (pale smartweed, Persicaria lapathifolia)” for “mehishiba (henry crabgrass, Digitaria cliaris)”, “1/8850” for “1/15500”

Compound: CCCOC(=O)C1=C(C(=O)N(C(C)=O)c2cc(SCC(=O)OC)c(Cl)cc2F)CCCC1 [compound 13]
- Injury of Paddy ([1]; 12.5 g/10a): 0
- Injury of Paddy ([1]; 25 g/10a): 0.5
- Herbicidal Effect nobie ([2]; 12.5 g/10a): 5
- Herbicidal Effect nobie ([2]; 25 g/10a): 5
- Herbicidal Effect broad-leaved weed ([3]; 12.5 g/10a): 5
- Herbicidal Effect broad-leaved weed ([3]; 25 g/10a): 5
- Herbicidal Effect hotarui ([4]; 12.5 g/10a): 4
- Herbicidal Effect hotarui ([4]; 25 g/10a): 4
- Herbicidal Effect tamagayatsuri ([5]; 12.5 g/10a): 5
- Herbicidal Effect tamagayatsuri ([5]; 25 g/10a): 5
- Herbicidal Effect rice ([6]; 40 g/10a): 1
- Herbicidal Effect rice ([6]; 80 g/10a): 1
- Herbicidal Effect cockspur ([7]; 40 g/10a): 2
- Herbicidal Effect cockspur ([7]; 80 g/10a): 2
- Herbicidal Effect garden radish ([8]; 40 g/10a): 5
- Herbicidal Effect garden radish ([8]; 80 g/10a): 5
- Herbicidal Effect aobiyu ([9]; 40 g/10a): 5
- Herbicidal Effect aobiyu ([9]; 80 g/10a): 5
- Herbicidal Effect mehishiba ([10]; 40 g/10a): 1
- Herbicidal Effect mehishiba ([10]; 80 g/10a): 1
- Herbicidal Effect ichibi ([11]; 4 g/10a): 5
- Herbicidal Effect ichibi ([11]; 8 g/10a): 5
- Herbicidal Effect onamomi ([12]; 4 g/10a): 5
- Herbicidal Effect onamomi ([12]; 8 g/10a): 5
- Herbicidal Effect noasagao ([13]; 4 g/10a): 5
- Herbicidal Effect noasagao ([13]; 8 g/10a): 5
- Herbicidal Effect ooinutade ([14]; 4 g/10a): 5
- Herbicidal Effect ooinutade ([14]; 8 g/10a): 5

Compound: COC(=O)C1=C(C(=O)N(C(C)=O)c2cc(SC(C)C(=O)OC)c(Cl)cc2F)CCCC1 (centres unmarked) [compound 20, N-acetyl-N-[4-chloro-2-fluoro-5-(1-methoxycarbonylethylthio)phenyl]-3,4,5,6-tetrahydrophthalamic acid methyl ester]
- Injury of Paddy ([1]; 12.5 g/10a): 0.5
- Injury of Paddy ([1]; 25 g/10a): 0.5
- Herbicidal Effect nobie ([2]; 12.5 g/10a): 5
- Herbicidal Effect nobie ([2]; 25 g/10a): 5
- Herbicidal Effect broad-leaved weed ([3]; 12.5 g/10a): 5
- Herbicidal Effect broad-leaved weed ([3]; 25 g/10a): 5
- Herbicidal Effect hotarui ([4]; 12.5 g/10a): 5
- Herbicidal Effect hotarui ([4]; 25 g/10a): 5
- Herbicidal Effect tamagayatsuri ([5]; 12.5 g/10a): 5
- Herbicidal Effect tamagayatsuri ([5]; 25 g/10a): 5
- Herbicidal Effect rice ([6]; 40 g/10a): 1
- Herbicidal Effect rice ([6]; 80 g/10a): 1
- Herbicidal Effect cockspur ([7]; 40 g/10a): 2
- Herbicidal Effect cockspur ([7]; 80 g/10a): 2
- Herbicidal Effect garden radish ([8]; 40 g/10a): 5
- Herbicidal Effect garden radish ([8]; 80 g/10a): 5
- Herbicidal Effect aobiyu ([9]; 40 g/10a): 5
- Herbicidal Effect aobiyu ([9]; 80 g/10a): 5
- Herbicidal Effect mehishiba ([10]; 40 g/10a): 1
- Herbicidal Effect mehishiba ([10]; 80 g/10a): 1
- Herbicidal Effect ichibi ([11]; 4 g/10a): 5
- Herbicidal Effect ichibi ([11]; 8 g/10a): 5
- Herbicidal Effect onamomi ([12]; 4 g/10a): 4
- Herbicidal Effect onamomi ([12]; 8 g/10a): 4
- Herbicidal Effect noasagao ([13]; 4 g/10a): 4
- Herbicidal Effect noasagao ([13]; 8 g/10a): 5
- Herbicidal Effect ooinutade ([14]; 4 g/10a): 5
- Herbicidal Effect ooinutade ([14]; 8 g/10a): 5

Compound: CCOC(=O)C1=C(C(=O)N(C(=O)CC)c2cc(SCC(=O)OC)c(Cl)cc2F)CCCC1 [compound 33]
- Herbicidal Effect rice ([6]; 40 g/10a): 1
- Herbicidal Effect rice ([6]; 80 g/10a): 1
- Herbicidal Effect cockspur ([7]; 40 g/10a): 1
- Herbicidal Effect cockspur ([7]; 80 g/10a): 1
- Herbicidal Effect garden radish ([8]; 40 g/10a): 5
- Herbicidal Effect garden radish ([8]; 80 g/10a): 5
- Herbicidal Effect aobiyu ([9]; 40 g/10a): 5
- Herbicidal Effect aobiyu ([9]; 80 g/10a): 5
- Herbicidal Effect mehishiba ([10]; 40 g/10a): 1
- Herbicidal Effect mehishiba ([10]; 80 g/10a): 1
- Herbicidal Effect ichibi ([11]; 4 g/10a): 5
- Herbicidal Effect ichibi ([11]; 8 g/10a): 5
- Herbicidal Effect onamomi ([12]; 4 g/10a): 5
- Herbicidal Effect onamomi ([12]; 8 g/10a): 5
- Herbicidal Effect noasagao ([13]; 4 g/10a): 4
- Herbicidal Effect noasagao ([13]; 8 g/10a): 5
- Herbicidal Effect ooinutade ([14]; 4 g/10a): 5
- Herbicidal Effect ooinutade ([14]; 8 g/10a): 5

Compound: CCCCOC(=O)C1=C(C(=O)N(C(=O)CC)c2cc(SCC(=O)OC)c(Cl)cc2F)CCCC1 [compound 35]
- Herbicidal Effect rice ([6]; 40 g/10a): 1
- Herbicidal Effect rice ([6]; 80 g/10a): 1
- Herbicidal Effect cockspur ([7]; 40 g/10a): 1
- Herbicidal Effect cockspur ([7]; 80 g/10a): 2
- Herbicidal Effect garden radish ([8]; 40 g/10a): 5
- Herbicidal Effect garden radish ([8]; 80 g/10a): 5
- Herbicidal Effect aobiyu ([9]; 40 g/10a): 5
- Herbicidal Effect aobiyu ([9]; 80 g/10a): 5
- Herbicidal Effect mehishiba ([10]; 40 g/10a): 1
- Herbicidal Effect mehishiba ([10]; 80 g/10a): 1
- Herbicidal Effect ichibi ([11]; 4 g/10a): 5
- Herbicidal Effect ichibi ([11]; 8 g/10a): 5
- Herbicidal Effect onamomi ([12]; 4 g/10a): 4
- Herbicidal Effect onamomi ([12]; 8 g/10a): 4
- Herbicidal Effect noasagao ([13]; 4 g/10a): 4
- Herbicidal Effect noasagao ([13]; 8 g/10a): 5
- Herbicidal Effect ooinutade ([14]; 4 g/10a): 5
- Herbicidal Effect ooinutade ([14]; 8 g/10a): 5

— patent US6337417B1, “N-phenyltetrahydrophthalamic acid derivatives, methods of producing same, and herbicides containing same as effective components” (Central Glass Co., Ltd., priority 1994, dated 2002)
